In patent US20230102192A1, “THERAPIES FOR THE TREATMENT OF DISEASES AND DISORDERS ASSOCIATED WITH ABNORMAL EXPRESSION OF A NEURAL-ASSOCIATED GENE” (The Regents of the University of California, priority 2020, published 2023):

Tests used:
[1] = large Carbamoylcholine metabolite; cited from earlier work
MECP2-KO neurons [2] = test: Co-localized pre/postsynaptic puncta quantification in neurons; format: cell-based, human; conditions: one-month old MECP2-KO neurons treated two weeks
Experimental: (§1) Pharmacologic treatment. One-month old cortical organoids were treated for 1 mo with either Nefiracetam (10 μM) or PHA 543613 (10 μM) during media changes.
Synaptic puncta quantification. Co-localized pre and postsynaptic puncta (Vglut and Homer1 immunostained) along MAP2-positive processes were quantified. Primary antibodies (see above) incubated 2 h, secondary antibodies incubated 1 h, and coverslips were mounted. Slides were analyzed under fluorescence microscopy.
Pharmacologic screening identifies two compounds that specifically reverse MECP2-KO phenotypes. 14 commercially available pharmacologic compounds with mechanisms of action that counteract the synapse and neurotransmitter pathologies were selected and which are identified in FIG. 5B. […] MECP2-KO and control neurons were treated with each of the 14 compounds and employed a tiered series of assays to identify those that could selectively rescue MECP2-KO pathology without affecting controls. […] The capacity of these compounds to increase pre and post co-localized synaptic puncta in MECP2-KO neurons were evaluated, again eliminating the drugs that affected control neurons (see FIG. 5F-G, and FIG. 6C-D).

MECP2-KO neurons [3] = test: Calcium imaging of neurons; format: cell-based, human; conditions: vs untreated KO
Experimental: as §1
Calcium imaging. Calcium imaging was performed as described in Chailangkarn et al. Briefly, PSC-derived neuronal networks were lentivirally transduced with a Syn::RFP reporter construct. Cultures were washed with Krebs HEPES buffer and incubated with Fluo-4AM (Molecular Probes/Invitrogen, Carlsbad, Calif., USA). A Hamamatsu ORCA-ER digital camera (Hamamatsu Photonics, Japan) with 488 nm filter on an Olympus IX81 inverted fluorescence confocal microscope (Olympus Optical, Tokyo, Japan) acquired 5000 frames at 28 Hz in a 256×256 pixel region (100× magnification). Images were acquired with MetaMorph7.7 (MDS Analytical Technologies, Sunnyvale, Calif., USA) and analyzed with ImageJ and Matlab7.2 (Mathworks, Natick, Mass., USA). Syn::RFP+ neurons were selected following tetrodotoxin blockade of calcium transients. A 95th-percentile threshold of amplitude for calcium spikes was set for event detection; signal amplitude is presented as fluorescence change (ΔF/F) following background subtraction.

Compound	gastrointestinal absorption [1]	traversal of the blood-brain barrier [1]	synaptogenesis / co-localized synaptic puncta (MECP2-KO neurons [2])	frequency of calcium oscillations (MECP2-KO neurons [3])	percentage of active neurons (MECP2-KO neurons [3])
C[N+](C)(C)CCOC(N)=O [Carbamoylcholine]	limited gastrointestinal absorption	cannot traverse the blood-brain barrier			
CC(=O)NCCCS(=O)(=O)O [Acamprosate]			specifically increased synaptogenesis	increases	increases
